Laboratory results published in patent US20060079503A1, “Thiazolidinones and the use therof as polo-like kinase inhibitors” (SCHERING AKTIENGESELLSCHAFT, priority 2002, published 2006).

Each compound was assayed on human MaTu breast tumor cells (assay: Proliferation assay (crystal violet staining)). Settings: 96 h, incubated for 4 days with test substances, read-out: Inhibition of the Tumor Cell Proliferation (MaTu) IC50.
Assay type: cell-based
Experimental: Cultivated human MaTu breast tumor cells were flattened out at a density of 5000 cells/measuring point in a 96-well multititer plate in […] of the corresponding growth medium. After 24 hours, the cells of one plate (zero-point plate) were colored with crystal violet (see below), while the medium of the other plates was replaced by fresh culture medium […], to which the test substances were added in various concentrations (0 μm, as well as in the range of 0.01-30 μm; the final concentration of the solvent dimethyl sulfoxide was 0.5%). The cells were incubated for 4 days in the presence of test substances. The cell proliferation was determined by coloring the cells with crystal violet: the cells were fixed by adding 20 μl/measuring point of an 11% glutaric aldehyde solution for 15 minutes at room temperature. After three washing cycles of the fixed cells with water, the plates were dried at room temperature. The cells were colored by adding 100 μl/measuring point of a 0.1% crystal violet solution (pH was set at 3 by adding acetic acid). After three washing cycles of the colored cells with water, the plates were dried at room temperature. The dye was dissolved by adding 100 μl/measuring point of a 10% acetic acid solution. The extinction was determined by photometry at a wavelength of 595 nm. The change of cell growth, in percent, was calculated by standardization of the measured values to the extinction values of the zero-point plate (=0%) and the extinction of the untreated (0 μm) cells (=100%).
`CCOC(=O)C(C#N)=c1sc(=CNc2ccc(C(N)=O)cc2)c(=O)n1CC` (mixture of isomers) [Example 10, (E or Z)-{5-(E/Z)-[(4-Carbamoyl-phenylamino)-methylene]-3-ethyl-4-oxo-thiazolidin-2-ylidene}-cyanoacetic acid ethyl ester] was tested, and the IC50 was 4000 nM. `CCOC(=O)C(C#N)=c1sc(=CN)c(=O)n1CC` (mixture of isomers) [Example 11, (E or Z)-(5-(E/Z)-Aminomethylene-3-ethyl-4-oxo-thiazolidin-2-ylidene)-cyanoacetic acid ethyl ester] gave an IC50 of 15000 nM. Work on `CCn1c(=C(C#N)C(=O)O)sc(=CNc2ccccc2)c1=O` (mixture of isomers) [Example 12, (E or Z)-Cyano-(3-ethyl-4-oxo-5-(E/Z)-phenylaminomethylene-thiazolidin-2-ylidene)-acetic acid] yielded an IC50 of 2000 nM.

The compounds below were run against T1, Recombinant human Plk-1 (6×His) (Homo sapiens, UniProt P53350) (assay: PLK enzyme assay (33P-γ-ATP incorporation into biotinylated casein, SPA beads)). Settings: 10 ng PLK enzyme, 90 minutes at room temperature, 0.5 μmol of ATP, casein substrate; read-out: Inhibition of PLK-1 IC50.
T1 construct: 6×His; made in house; host or cells: baculovirus-infected insect cells (Hi5)
T1 sequence (P53350 whole entry): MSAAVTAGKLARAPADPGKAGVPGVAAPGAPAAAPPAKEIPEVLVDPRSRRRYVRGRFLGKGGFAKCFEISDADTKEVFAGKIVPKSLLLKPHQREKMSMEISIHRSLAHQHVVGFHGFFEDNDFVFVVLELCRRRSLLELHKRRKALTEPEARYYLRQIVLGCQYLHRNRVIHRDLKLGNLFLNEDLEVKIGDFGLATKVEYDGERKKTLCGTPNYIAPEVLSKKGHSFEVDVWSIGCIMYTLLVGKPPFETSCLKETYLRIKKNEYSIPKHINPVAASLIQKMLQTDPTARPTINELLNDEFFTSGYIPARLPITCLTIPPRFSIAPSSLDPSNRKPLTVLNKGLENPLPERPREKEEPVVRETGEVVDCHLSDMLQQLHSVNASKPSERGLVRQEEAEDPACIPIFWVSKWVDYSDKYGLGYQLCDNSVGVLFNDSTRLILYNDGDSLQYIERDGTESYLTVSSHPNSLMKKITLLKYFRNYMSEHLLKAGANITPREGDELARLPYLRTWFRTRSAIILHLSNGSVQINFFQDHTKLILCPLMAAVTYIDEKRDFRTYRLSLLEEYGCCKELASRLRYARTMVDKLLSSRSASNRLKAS
Assay type: biochemical
Experimental: Recombinant human Plk-1 (6×His) was purified from baculovirus-infected insect cells (Hi5).
10 ng of (produced in a recombinant manner and purified) PLK enzyme is incubated for 90 minutes at room temperature with biotinylated casein and 33P-γ-ATP as a substrate in a volume of 15 μl in 384-well Greiner small-volume microtiter plates (final concentrations in the buffer: 660 ng/ml of PLK; 0.7 μmol of casein, 0.5 μmol of ATP incl. 400 nCi/ml of 33P-γ-ATP; 10 mmol of MgCl2, 1 mmol of MnCl2; 0.01% NP40; 1 mmol of DTT, protease inhibitors; 0.1 mmol of Na2VO3 in 50 mmol of HEPES, pH 7.5). To complete the reaction, 5 μl of stop solution (500 μmol of ATP; 500 mmol of EDTA; 1% Triton X100; 100 mg/ml of streptavidin-coated SPA beads in PBS) is added. After the microtiter plate is sealed by film, the beads are sedimented by centrifuging (10 minutes, 1500 rpm). The incorporation of 33P-γ-ATP in casein is intended as a measurement of enzyme activity by β-counting.
Test substances are used in various concentrations (0 μmol, as well as in the range of 0.01-30 μmol). The final concentration of the solvent dimethyl sulfoxide is 1.5% in all batches.
`CCOC(=O)C(C#N)=c1sc(=CNc2ccc(C(N)=O)cc2)c(=O)n1CC` (mixture of isomers) [Example 10, (E or Z)-{5-(E/Z)-[(4-Carbamoyl-phenylamino)-methylene]-3-ethyl-4-oxo-thiazolidin-2-ylidene}-cyanoacetic acid ethyl ester] gave an IC50 of 200 nM. In the case of `CCOC(=O)C(C#N)=c1sc(=CN)c(=O)n1CC` (mixture of isomers) [Example 11, (E or Z)-(5-(E/Z)-Aminomethylene-3-ethyl-4-oxo-thiazolidin-2-ylidene)-cyanoacetic acid ethyl ester], the IC50 is reported as 400 nM. Compound `CCn1c(=C(C#N)C(=O)O)sc(=CNc2ccccc2)c1=O` (mixture of isomers) [Example 12, (E or Z)-Cyano-(3-ethyl-4-oxo-5-(E/Z)-phenylaminomethylene-thiazolidin-2-ylidene)-acetic acid] has an IC50 of 100 nM. Work on `CCn1c(=CC#N)sc(=CNc2ccccc2)c1=O` (mixture of isomers) [Example 21, (E or Z)-(3-Ethyl-4-oxo-5-(E/Z)-phenylaminomethylene-thiazolidin-2-ylidene)-acetonitrile] yielded an IC50 of 230 nM. In the case of `CCOC(=O)C(C#N)=c1sc(=CNc2ccc(S(C)(=O)=O)cc2)c(=O)n1CC` [Example 22], the IC50 is reported as 510 nM. `CCOC(=O)C(C#N)=c1sc(=CNc2cccc(C(=O)O)c2)c(=O)n1CC` [Example 24] was tested, and the IC50 was 230 nM. `CCOC(=O)C(C#N)=c1sc(=CNc2ccccc2C(=O)O)c(=O)n1CC` [Example 26] was tested, and the IC50 was 6300 nM. Work on `CCOC(=O)C(C#N)=c1sc(=CNc2cc(C(=O)O)ccc2O)c(=O)n1CC` [Example 28] yielded an IC50 of 2300 nM. In the case of `CCOC(=O)C(C#N)=c1sc(=CNc2ccc(C(=O)O)cc2O)c(=O)n1CC` [Example 30], the IC50 is reported as 250 nM. Work on `CCOC(=O)C(C#N)=c1sc(=CNc2ccc(Cl)cc2C(=O)O)c(=O)n1CC` [Example 31] yielded an IC50 of 1900 nM. With `CCOC(=O)C(C#N)=c1sc(=CNc2cc(Cl)ccc2C(=O)O)c(=O)n1CC` [Example 32] the IC50 was 1700 nM. In the case of `CCOC(=O)C(C#N)=c1sc(=CNc2ccc(Cl)c(C(=O)O)c2)c(=O)n1CC` [Example 33], the IC50 is reported as 420 nM. `CCOC(=O)C(C#N)=c1sc(=CNc2ccc(F)cc2C(=O)O)c(=O)n1CC` [Example 35] gave an IC50 of 2800 nM. `CCOC(=O)C(C#N)=c1sc(=CNc2ccc(Br)cc2C(=O)O)c(=O)n1CC` [Example 36] was tested, and the IC50 was 1800 nM. With `CCOC(=O)C(C#N)=c1sc(=CNc2cc(F)c(F)cc2C(=O)O)c(=O)n1CC` [Example 37] the IC50 was 3500 nM. `CCOC(=O)C(C#N)=c1sc(=CNc2ccc(C)cc2C(=O)O)c(=O)n1CC` [Example 38] showed an IC50 of 3000 nM. For `CCOC(=O)C(C#N)=c1sc(=CNc2cccc(C)c2C(=O)O)c(=O)n1CC` [Example 39], the IC50 was 5900 nM. With `CCOC(=O)C(C#N)=c1sc(=CNc2ccc(C(=O)O)cc2C)c(=O)n1CC` [Example 40] the IC50 was 1700 nM. Compound `CCOC(=O)C(C#N)=c1sc(=CNC(=O)Nc2ccccc2)c(=O)n1CC` [Example 45] has an IC50 of 680 nM. Compound `CCOC(=O)C(C#N)=c1sc(=CNc2cccc(C(N)=O)c2)c(=O)n1CC` [Example 48] has an IC50 of 270 nM. In the case of `CCOC(=O)C(C#N)=c1sc(=CNc2ccc(S(N)(=O)=O)cc2)c(=O)n1CC` [Example 50], the IC50 is reported as 240 nM. For `CCOC(=O)C(C#N)=c1sc(=CNc2cccc(C(=O)NC)c2)c(=O)n1CC` [Example 52], the IC50 was 260 nM. `CCOC(=O)C(C#N)=c1sc(=CNc2cccc(S(N)(=O)=O)c2)c(=O)n1CC` [Example 53] was tested, and the IC50 was 460 nM. Work on `CCOC(=O)C(C#N)=c1sc(=CNc2ccc(NC(C)=O)cc2)c(=O)n1CC` [Example 58] yielded an IC50 of 270 nM. In the case of `CCOC(=O)C(C#N)=c1sc(=CNc2cccc(NC(C)=O)c2)c(=O)n1CC` [Example 59], the IC50 is reported as 180 nM. `CCOC(=O)C(C#N)=c1sc(=CNc2cccc(CO)c2)c(=O)n1CC` [Example 60] gave an IC50 of 290 nM.
